Values quoted from earlier work as cited in patent publication US20130281523A1, “LOW DOSE CANNABINOID MEDICAMENTS” (priority 2010, published 2013).

Tested on: rat model of sleep apnea
Settings: 10 mg/kg intraperitoneal injection

Structure (SMILES): CCCCCc1cc(O)c2c(c1)OC(C)(C)[C@@H]1CCC(C)=C[C@@H]21 [Dronabinol, Delta-9-tetrahydrocannabinol]
- Breathing cessation during non-REM (NREM) sleep: reduced breathing cessation
